In article PMC6470699, “BcXyl, a β-xylosidase Isolated from Brunfelsia Calycina Flowers with Anthocyanin-β-glycosidase Activity” (International Journal of Molecular Sciences, 2019):

Target: T1, BcXyl (β-xylosidase, anthocyanin-β-glycosidase) (Brunfelsia pauciflora, UniProt A0A6G5NV63)
T1 construct: gene xyl; native purification from stage 2 petals (ammonium sulfate, DEAE, CM); about 72 kDa on SDS-PAGE; cDNA codes for 786 aa with predicted signal peptide 1-27; MS/MS peptides AVSNNFATLMR, LPMTWYPQSYADK, VTQQDLDDTFNPPFK, HYTAYDIDDWK, YEWWSEALHGISYTGPGVK
T1 sequence (A0A6G5NV63 28-785 limits assumed): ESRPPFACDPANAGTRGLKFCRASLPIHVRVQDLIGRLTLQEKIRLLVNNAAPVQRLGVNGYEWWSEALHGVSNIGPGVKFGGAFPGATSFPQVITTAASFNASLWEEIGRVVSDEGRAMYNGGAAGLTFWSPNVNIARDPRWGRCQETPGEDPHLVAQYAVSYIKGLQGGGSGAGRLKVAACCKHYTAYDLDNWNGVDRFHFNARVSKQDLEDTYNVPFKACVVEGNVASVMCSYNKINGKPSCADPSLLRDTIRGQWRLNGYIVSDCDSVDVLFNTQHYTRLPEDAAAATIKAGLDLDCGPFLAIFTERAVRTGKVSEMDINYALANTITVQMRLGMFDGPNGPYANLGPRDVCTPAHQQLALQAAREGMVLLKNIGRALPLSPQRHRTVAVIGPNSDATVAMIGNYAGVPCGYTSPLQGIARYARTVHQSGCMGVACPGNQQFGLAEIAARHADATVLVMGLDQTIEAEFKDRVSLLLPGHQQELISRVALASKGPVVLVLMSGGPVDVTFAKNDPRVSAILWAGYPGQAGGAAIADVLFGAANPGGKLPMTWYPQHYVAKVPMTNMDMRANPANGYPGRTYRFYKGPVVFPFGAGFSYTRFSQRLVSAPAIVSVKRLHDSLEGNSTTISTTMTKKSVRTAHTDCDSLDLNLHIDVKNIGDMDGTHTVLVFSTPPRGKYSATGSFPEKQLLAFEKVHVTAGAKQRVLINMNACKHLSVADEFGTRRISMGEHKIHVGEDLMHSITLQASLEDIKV
Experiment: p-nitrophenol release at […] nm
Format: biochemical
Conditions: read-out: Residual Activity (%)

remaining activity at 1000 µM: 13.2 ± 0.69%
Compound: O=C(O)[C@H](O)[C@@H](O)[C@H](O)[C@H](O)CO [D-gluconic acid]
